Source: patent US5780481A, “Method for inhibiting activation of the human A3 adenosine receptor to treat asthma” (Merck & Co., Inc., priority 1996, dated 1998)

Legend:
[1] = tested on: hamster cheek pouch arterioles; experiment: Vascular constriction in hamster cheek pouch arterioles; design: species or system Golden hamster
Experimental: Adenosine, inosine, cromolyn, compound 48/80, methylene blue, acetylcholine, and components for saline solutions used to bathe arterioles are obtained from Sigma. 8(p-sulphophenyl)theo-phylline was obtained from Research Biochemicals, Inc. (Natick, Mass.).
Arterioles (luminal diameter approximately 60 μm) are dissected from male Golden hamster cheek pouches, transferred to a 37° C. tissue chamber, and cannulated at both ends (see Duling et al., Am. J. Physiol., (241) (Heart Circ. Physiol., (10) pp. H108-H116 (1981); Duling et al., Microcirculatory Technology, edited by C. H. Baker and W. G. Nastuk, Orlando Academic Press, pp. 265-280 (1986)). Changes in luminal diameter in response to abluminal delivery of adenosine (10^-8 M to 10^-4 M) are measured using videotaped microscopic observation and video calipers with continuous output, to generate cumulative concentration-response curves.
Examination of the abluminal surface of the vessel after staining with methylene blue reveal large numbers of mast cells closely associated with the vessel wall.

[2] = target: T1, human A1 adenosine receptor (Homo sapiens, UniProt P30542); experiment: Radioligand binding assay, A1 receptor; conditions: [3H]-cyclohexyladenosine (CHA); membranes of transfected COS7 cells; read-out: IC50, inhibition of specific radioligand binding to A1 receptor
T1 construct: expressed in transfected cells; host or cells: COS7 cells (transient transfection), membranes
T1 sequence (P30542 1-326): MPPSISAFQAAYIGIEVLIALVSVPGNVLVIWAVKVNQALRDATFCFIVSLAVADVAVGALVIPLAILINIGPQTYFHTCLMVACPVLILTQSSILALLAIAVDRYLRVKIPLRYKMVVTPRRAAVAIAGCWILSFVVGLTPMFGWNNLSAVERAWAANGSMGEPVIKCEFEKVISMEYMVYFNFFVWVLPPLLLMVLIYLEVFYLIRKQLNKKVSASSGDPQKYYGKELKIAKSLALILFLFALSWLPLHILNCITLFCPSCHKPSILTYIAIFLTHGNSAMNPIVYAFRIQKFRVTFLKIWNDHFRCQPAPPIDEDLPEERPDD
Text: (§1) The human A1, A2a, A2b and A3 receptor subtype cDNAs were subcloned into the expression vectors pSVL (Pharmacia, Columbus, Ohio), CMV5 (Mumby, et al., PNAS, (87) pp. 728-732 (1990)) pCDNA1 or pREP (Invitrogen). Transient expression in COS7 cells (monkey kidney cell line, ATCC CRL 1651, ATCC, Rockville, Md.) (Doyl et al. WO 95/11681) was accomplished by transfection of the cloned adenosine receptor cDNAs under the control of the SV40 promoter into mammalian cells, such as COS7. Membranes prepared from the transfected cells were utilized for the determination of binding affinity, selectivity and specificity of the human adenosine receptors for various ligands. […]
(§2) Membranes prepared from transfected COS7 cells were utilized in a binding assay to measure the affinity of agonists and antagonists on the human adenosine receptors. […] Bound radioactivity was measured by scintillation counting. Binding data were analyzed by the use on nonlinear regression curve fitting program Graph Pad InPlot, Version 3.0 (Graph Pad Software, San Diego). Ki values were calculated using the Cheng-Prusoff derivation (Cheng, Y. C. and Prusoff, H. R. (1973) Biochem. Pharmacol. 22, 3099-3108). […] Nonselective binding was determined with 1 μM I-ABA for A1 and A3 receptors and 10 μM NECA for A2a receptors. Activity on A2b receptor subtypes was measured in the cAMP accumulation assay described below. […]

[3] = tested on: myocardial infarct; experiment: Reduction of myocardial infarct size in anesthetized dogs; format: in vivo, dog
Experimental: The effect of antagonist compound IV, with high affinity for canine A3 adenosine receptors, on myocardial infarct size is compared to a vehicle-treated control group in barbital-anesthetized dogs subjected to 90 minutes of left anterior descending coronary artery occlusion followed by 3 hours of reperfilsion. Vehicle (5 μM NaOH in isotonic saline) or antagonist are infused at a rate of 1 ml/min directly into the left anterior descending coronary artery distal to the occlusion site beginning 10 minutes before occlusion and are continued throughout the entire ischemic period. The myocardial region at risk and infarct size are determined by the triphenyltetrazolium histochemical technique and regional myocardial blood flow by radioactive microspheres. Coronary sinus LDH activity and histamine concentrations were measured at various times throughout the experiments and myeloperoxidase activity was determined at the conclusion of the experiments as an index of neutrophil infiltration into the ischemic-reperfused mycocardium. Ten dogs were included in this preliminary study, 4 in the vehicle-treated group and 6 in the antagonist treated group.

[4] = target: T2, human A2b adenosine receptor (Homo sapiens, UniProt P29275); experiment: cAMP accumulation via A2b receptors; format: cell-based; conditions: at 10 μM; stably transfected CHO cells; adenosine (10 μM) induced
T2 construct: cAMP accumulation induced by adenosine
T2 sequence (P29275 1-332): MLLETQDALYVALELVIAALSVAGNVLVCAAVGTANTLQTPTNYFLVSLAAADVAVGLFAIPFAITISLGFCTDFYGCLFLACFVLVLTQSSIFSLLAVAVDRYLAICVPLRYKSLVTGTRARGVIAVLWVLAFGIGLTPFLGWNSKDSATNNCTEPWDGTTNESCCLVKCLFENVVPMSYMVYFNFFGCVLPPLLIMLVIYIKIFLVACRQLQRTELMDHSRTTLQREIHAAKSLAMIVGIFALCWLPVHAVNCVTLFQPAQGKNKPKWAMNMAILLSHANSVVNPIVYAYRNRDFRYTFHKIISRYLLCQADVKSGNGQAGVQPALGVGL

[5] = target: T3, human A3 adenosine receptor (Homo sapiens, UniProt P0DMS8); experiment: Radioligand binding assay, A3 receptor; conditions: [3H]-NECA or [125I]-ABA; membranes of transfected COS7 cells; read-out: IC50, inhibition of specific radioligand binding to A3 receptor
T3 construct: expressed in transfected cells
T3 sequence (P0DMS8 1-318): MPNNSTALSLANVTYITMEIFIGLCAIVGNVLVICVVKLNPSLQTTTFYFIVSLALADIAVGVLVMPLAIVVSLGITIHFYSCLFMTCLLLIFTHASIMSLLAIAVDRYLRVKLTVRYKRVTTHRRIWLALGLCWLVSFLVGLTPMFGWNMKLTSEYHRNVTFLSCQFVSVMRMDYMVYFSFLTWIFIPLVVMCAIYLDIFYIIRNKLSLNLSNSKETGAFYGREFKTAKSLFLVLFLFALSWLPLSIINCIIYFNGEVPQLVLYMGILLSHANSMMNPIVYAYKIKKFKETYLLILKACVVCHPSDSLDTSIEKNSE
Experimental: Membranes prepared from transfected COS7 cells were utilized in a binding assay to measure the affinity of agonists and antagonists on the human adenosine receptors. […] Bound radioactivity was measured by scintillation counting. Binding data were analyzed by the use on nonlinear regression curve fitting program Graph Pad InPlot, Version 3.0 (Graph Pad Software, San Diego). […] The affinities of agonists and antagonists on human adenosine receptor subtypes were measured in competition binding assays using the radiolabeled adenosine agonists, [^3 H]-cyclo-hexyladenosine (CHA) for A1 receptors, [^3 H]-CGS21680 (2-(p-(2-carboxyethyl)-phenylamino)-5'-N-ethyl-carboxamidoadenosine) for A2a receptors and, [^3 H]-5'-N-ethylcarboxamido adenosine ([^3 H]-NECA), or [^125 I]-N^6 -aminobenzyl adenosine (^125 I-ABA) for A3 receptors. Nonselective binding was determined with 1 μM I-ABA for A1 and A3 receptors and 10 μM NECA for A2a receptors. […]

[6] = tested on: canine A3 adenosine receptors; experiment: Affinity for canine A3 adenosine receptors; format: binding
[7] = target: T3, human A3 adenosine receptor; experiment: cAMP accumulation assay, A3 receptors stably expressed on CHO cells (FIG. 1); format: cell-based
Experimental: The changes in cAMP accumulation were measured in stably transfected CHO cells expressing the human adenosine receptor subtypes. CHO cells were washed twice in phosphate buffered saline (PBS) and detached in 0.2% EDTA in PBS. After pelleting at 800 rpm for 10 min, cells were resuspended in KRH buffer (140 mM NaCl/5 mM KCl/2 mM CaCl2 /1.2 mM MgSO4 /1.2 mM KH2 PO4 /6 mM glucose/25 mM Hepes buffer, pH 7.4), washed once in KRH buffer and resuspended at 10^7 cells/mL. The cell suspension (100 μL) was mixed with 100 μL of KRH buffer containing 200 μM of the phosphodiesterase inhibitor Ro 20-1724 and incubated at 37° C. for 15 minutes. Antagonists were preincubated for 10 minutes before adding 5 μM forskolin and 60 μM adenosine. After 10 minutes, 400 μL of 100 mM acetic acid was added and the sample was boiled for 5 minutes. The supernatant was recovered by centrifugation for 15 minutes and cAMP levels were determined by radioimmunoassay ([…] kit, DuPont/NEN) using the acetylation protocol.

[8] = target: T4, human A2a adenosine receptor (Homo sapiens, UniProt P29274); experiment: Radioligand binding assay, A2a receptor; conditions: [3H]-CGS21680; membranes of transfected COS7 cells; read-out: IC50, inhibition of specific radioligand binding to A2a receptor
T4 construct: expressed in transfected cells; host or cells: COS7 cells (transient transfection), membranes
T4 sequence (P29274 whole entry): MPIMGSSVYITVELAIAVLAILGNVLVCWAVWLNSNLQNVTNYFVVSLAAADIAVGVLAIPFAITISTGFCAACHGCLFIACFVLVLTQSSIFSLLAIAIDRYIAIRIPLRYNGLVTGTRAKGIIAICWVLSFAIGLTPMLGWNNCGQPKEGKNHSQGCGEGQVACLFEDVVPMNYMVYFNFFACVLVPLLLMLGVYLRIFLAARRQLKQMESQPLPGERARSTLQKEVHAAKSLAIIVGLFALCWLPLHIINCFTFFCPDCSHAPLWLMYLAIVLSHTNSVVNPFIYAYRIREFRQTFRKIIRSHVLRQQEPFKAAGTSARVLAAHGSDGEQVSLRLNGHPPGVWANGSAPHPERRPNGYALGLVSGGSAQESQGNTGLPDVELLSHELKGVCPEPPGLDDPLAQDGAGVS
Text: as §1, §2

[9] = tested on: mast cells isolated from rat peritoneum; conditions: cited from earlier work
[10] = tested on: asthmatics; conditions: asthmatics but not nonasthmatics; cited from earlier work
[11] = tested on: ischemic reperfused myocardium; conditions: in vivo; cited from earlier work

Cn1c(=O)c2[nH]c(-c3ccc(S(=O)(=O)O)cc3)nc2n(C)c1=O [8(p-sulfophenyl) theophylline]
effect on adenosine-induced constriction ([1]; pretreatment 100 μM): did not alter the constriction | effect on adenosine-induced dilator responses ([1]; pretreatment 100 μM): inhibited the dilator responses

COC(=O)C1=C2C=CN(C)C=C2c2nc(-c3ccccc3)nn2C1 [Compound IV]
IC50 [2]: 5.3 µM | myocardial infarct size ([3]; 90 min LAD occlusion, 3 h reperfusion, intracoronary infusion, vs vehicle): effectively reduces myocardial infarct size | hemodynamics and regional myocardial blood flow in non-ischemic left circumflex coronary artery region ([3]; at baseline or during occlusion, between groups): not different between groups | myeloperoxidase activity ([3]; between the two groups, end of experiment): not different between the two groups | arrhythmias ([3]; during occlusion and reperfusion, all animals): arrhythmias are encountered | coronary sinus LDH activity ([3]; during reperfusion): reduced | coronary sinus histamine concentrations ([3]; during reperfusion): reduced | dP/dt ([3]; during reperfusion): significantly improved | left anterior descending coronary artery blood flow ([3]; during reperfusion): significantly decreased | myeloperoxidase activity in infarcted tissue ([3]; infarcted tissue, end of experiment): tendency for reduced activity | collateral blood flow ([3]; ischemic-reperfused region, during occlusion, particularly subepicardial): slightly greater | ventricular fibrillation requiring cardioversion ([3]; some dogs from each group): some dogs from each group progress to ventricular fibrillation requiring cardioversion | IC50, cAMP accumulation via A2b receptors [4]: inactive | IC50 [5]: 0.013 µM | affinity for canine A3 adenosine receptors [6]: high affinity | effect on inhibition of cAMP accumulation resulting from adenosine activation of A3 receptors ([7]; 10 μM compound IV, forskolin induced cAMP): prevents the inhibition of cAMP accumulation | effect on basal cAMP levels ([7]; basal): no effect | effect on levels of cAMP accumulated with forskolin alone ([7]; forskolin alone): no effect | IC50 [8]: 27.5 µM

Nc1ncnc2c1ncn2[C@@H]1O[C@H](CO)[C@@H](O)[C@H]1O [adenosine]
release of granule contents from mast cells [9]: potentiates the release of granule contents | constrictor response of arterioles ([1]; 10^-6 M adenosine, abluminal): elicited an intense, transient constriction | dilator response of arterioles ([1]; concentrations higher than 10^-6 M adenosine): induced dilator responses | mast cell degranulation on abluminal vessel surface ([1]; following exposure to adenosine, methylene blue staining): mast cells are found to be degranulated | bronchoconstriction [10]: produce bronchoconstriction in asthmatics but not in nonasthmatics

N#Cc1cc(NC(=O)C(=O)O)c(Cl)c(NC(=O)C(=O)O)c1 [lodoxamide]
myocardial ischemic injury [11]: reduces myocardial ischemic injury
